Assay results published in the METLIN SMRT retention time set (Domingo-Almenara et al. 2019).

assay: gradient 5% acetonitrile 3 min, to 50% in 2 min, to 85% in 15 min, held 3 min, 100 µL/min; conditions: column: Zorbax Extend-C18 2.1 x 50 mm; eluents: water / acetonitrile, 0.1% formic acid
How it was run: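 Standards, all pure, were combined into mixtures of ~100 molecules and run at 100 μL/min on a Zorbax Extend-C18 column (2.1 × 50 mm, 1.8 μm) with water and acetonitrile, each containing 0.1% formic acid. A coupled quadrupole time-of-flight mass spectrometer operated in positive and negative ionization mode. Retention time values come from computationally picked adduct peaks, each inspected manually.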

| RP-LC retention time | Structure (SMILES) |
| --- | --- |
| 648 s | O=C(Cn1ncc2c(c1=O)N(C1CC1)C(=O)CS2)NCc1ccco1 |
| 928 s | Cc1ccc(-n2ccc(=O)c(-c3nc(-c4cccc(F)c4)no3)n2)cc1 |
| 774 s | O=C1NC2(CCN(C(=O)c3cc(F)cc(F)c3)CC2)Nc2cc(Cl)ccc21 |
| 668 s | Cn1nc(C(=O)N2CCCCC2)c2c1CCN(C(=O)CCC(=O)N1CCCCCC1)C2 |
| 598 s | CN(CCCC(=O)O)S(=O)(=O)c1ccc(N)cc1 |
| 1120 s | Cc1ccc(NC(=O)Cn2cnc3c(sc4nc(-c5ccccc5)ccc43)c2=O)c(Cl)c1 |
| 802 s | CC(C)NC(=O)N1CCCCCC1c1nc(C2CC2)no1 (stereo not given) |
| 547 s | O=C(c1cccs1)N1CCC(Nc2ncnc3c2CCC3)C1 (stereo not given) |
| 872 s | O=C(Nc1ccc(OCc2cc(C(=O)NC3CC3)no2)cc1)c1ccc(Cl)cc1 |
| 610 s | O=C(c1ccc2c(c1)OCO2)N1CC(c2noc(C3CCCN3CC3CC3)n2)C1 (stereo not given) |
| 616 s | C=CCn1c(SCC(=O)N2CCC(C(N)=O)CC2)nnc1-c1sc2ncccc2c1N |
| 593 s | COc1ccc(NC(=O)Cn2c(N)nc(C)cc2=O)cc1F |
| 827 s | CCc1nc(OCC(=O)Nc2ccccc2Br)c2ccccc2n1 |
| 774 s | Cc1nc(-c2cc(S(=O)(=O)NCC(=O)NC3CCCC3)c(C)s2)no1 |
| 900 s | CCOc1cc(=O)n2c(c1C(=O)OCc1cccc(F)c1)CCCC2 |
| 829 s | CCCCC(=O)N1CCN(c2ccc(=O)n(-c3ccc(Cl)cc3)n2)CC1 |
| 855 s | Cc1ccc(Nc2c(-c3ccc(N(C)C)cc3)nc3cnccn23)cc1 |
| 566 s | COc1ccc(C(=O)NCC(c2cccn2C)N2CCCC2)c(OC)c1OC (stereo not given) |
| 641 s | CCCN1CCN(CCNC(=O)C2CCCN(c3ncc(-c4cccc(F)c4)cn3)C2)CC1 (stereo not given) |
| 872 s | COc1ccc(NC(=O)Cn2nc3cc(-c4ccc(OC)cc4)nc(C)n3c2=O)cc1 |
| 932 s | O=C(Cn1c(=O)cc(-c2nc(C3CC3)no2)c2ccccc21)NC1CCCCC1 |
| 713 s | O=C(OCc1ccncc1)c1cn(-c2cccc(F)c2)c(=O)c2ccccc12 |

| RP-LC retention time | Structure (SMILES) |
| --- | --- |
| 1080 s | CC1CC(=O)c2cnc(N3CCN(c4ccccc4)CC3)nc2C1 (stereo not given) |
| 624 s | COc1cccc(C(=O)NCC(=O)Nc2nc3ccccc3[nH]2)c1 |
| 672 s | CCCNC(=O)C1CCN(c2ccc(SCC(=O)NCc3cccc(C(F)(F)F)c3)nn2)CC1 |
| 819 s | COc1ccc(C)cc1NC(=O)N1CCC2(CC1)NC(=O)c1cccc(Cl)c1N2 |
| 768 s | CCOC(=O)Cc1c(C)c2cc(C(=O)c3ccccc3)c(O)cc2oc1=O |
| 604 s | COc1cccc(CC(=O)N2CCC(Nc3ncnc4c3CCC4)C2)c1 (stereo not given) |
| 595 s | CC(C)NC(=O)C1CCCN(c2cc(=O)n(C)c(=O)n2C)C1 (stereo not given) |
| 596 s | COCCNC(=O)N1CC(c2nc(-c3cccnc3)no2)C2(CCOCC2)C1 (stereo not given) |
| 589 s | CCCCN(C)C(=O)Cn1c(CO)nc2ccccc21 |
| 1280 s | CCCCn1c(=O)c2ccccc2n(Cc2nc(-c3ccc(Cl)cc3)no2)c1=O |
| 700 s | C=CCNC(=O)C1CCCN(S(=O)(=O)c2ccc(OC)c(OC)c2)C1 (stereo not given) |
| 906 s | COc1ccc(OCc2nnc3sc(-c4ccc5c(c4)OCCO5)nn23)cc1 |
| 1000 s | CCc1nn2c(CNS(=O)(=O)c3ccc(Cl)cc3)c(-c3ccccc3)nc2s1 |
| 610 s | CCCN1CCN(CCCNC(=O)C2=Cc3cc(Br)ccc3OC2)CC1 |
| 849 s | O=C(c1c2c(nn1C1CCS(=O)(=O)C1)CCC2)N1CCC(Cc2ccccc2)CC1 (stereo not given) |
| 788 s | COc1ccc(-n2ccc(=O)c(-c3nc(-c4ccc(OC)c(OC)c4)no3)n2)cc1 |
| 863 s | NS(=O)(=O)c1cccnc1Nc1ccc(Cl)cc1 |
| 669 s | O=C(CC1CCN(C(=O)c2cc3cc(Cl)ccc3[nH]2)CC1)N1CCN(c2ccccn2)CC1 |
| 712 s | COc1ccc(-c2nocc2CCC(=O)O)cc1 |
| 1160 s | CCOc1ccc(C2Cn3nnc(-c4nc(-c5ccc(OC)cc5)no4)c3CO2)cc1 (stereo not given) |
| 896 s | Cc1nc(-c2cc(S(=O)(=O)NCC(=O)N3CCN(c4ccccc4)CC3)c(C)s2)no1 |
| 890 s | Cc1ccccc1NC(=O)c1sc(-c2cn(C)c3ncccc23)nc1C |

| RP-LC retention time | Structure (SMILES) |
| --- | --- |
| 1110 s | Cc1cccc(N2CCN(S(=O)(=O)c3cc(-c4nnc(C5CCC5)o4)co3)CC2)c1 |
| 788 s | COc1ccc(CCNC(=O)Nc2nnc(-c3ccc(F)cc3F)o2)cc1 |
| 610 s | COc1ccc(Cl)c2c(=O)c3c([nH]c12)CCN(CC(=O)Nc1ccc2c(c1)OCCO2)C3 |
| 647 s | CCCNC(=O)c1cc(=O)[nH]c2c(C)cccc12 |
| 859 s | COc1ccccc1NC(=O)Cn1nc2c(Oc3ccc(Cl)cc3)nccn2c1=O |
| 722 s | O=C(Nc1ccc(N2CCCCC2=O)cc1)c1cccc2ccccc12 |
| 1120 s | COC(=O)c1sccc1NC(=O)N1CCCC1c1cccc(C)c1 (stereo not given) |
| 867 s | O=C(Nc1ccccc1Cl)N1CCC(N2CCN(Cc3ccccc3)C(=O)C2=O)CC1 |
| 736 s | Cc1cc(NC(=O)C(=O)NCC2(c3ccc(F)cc3)CCOCC2)no1 |
| 981 s | CCOc1ccccc1-c1csc(NC(=O)c2sc(C)nc2C)n1 |
| 571 s | CC(C)Oc1ccc(CN2CC(N(Cc3ccncc3)S(C)(=O)=O)C2)cc1 |
| 796 s | O=C(Nc1cnc(N2CCCC2)nc1)c1ccc(Br)cc1 |
| 565 s | Nc1nnc(CCS(=O)(=O)c2ccccc2)o1 |
| 800 s | O=C(NC1CCN(c2cc(-c3cccs3)[nH]n2)C1)c1cc(Cl)ccc1F (stereo not given) |
| 696 s | COc1cccc(N2CCN(C(=O)C3CCCN(c4nc5ncccc5n5cccc45)C3)CC2)c1 (stereo not given) |
| 694 s | O=C(CSc1nc(N2CCCCC2)nc2ccccc12)Nc1ccc2c(c1)OCO2 |
| 793 s | O=C(NCc1ccco1)c1ccc(-n2nnc3cccnc32)cc1Cl |
| 768 s | CC(C)n1cnc(S(=O)(=O)N2CCCC(C(=O)Nc3ccccc3)C2)c1 (stereo not given) |
| 668 s | COc1ccc(-n2c(=O)n(C)c(=O)c3cc(C(=O)Nc4ccc(C(N)=O)cc4)cnc32)cc1 |
| 858 s | CCN(CC)C(=O)c1ccc2c(c1)N(CC(=O)Nc1cc(C)cc(C)c1)C(=O)CS2 |
| 639 s | COc1ccc(OC)c(NS(=O)(=O)c2cc3n(c2)CCCNC3=O)c1 |
| 720 s | CCCCOc1ccc(C(=O)N2CCN(c3cc(C)nc(N4CCOCC4)n3)CC2)cc1 |

| RP-LC retention time | Structure (SMILES) |
| --- | --- |
| 639 s | Cn1cnnc1C1CCCCN1S(=O)(=O)c1cccs1 (stereo not given) |
| 556 s | Cc1nc([C@@H]2CN(Cc3ccc(Br)o3)C[C@H]2C(N)=O)n[nH]1 |
| 726 s | CC(=O)Nc1nc(-c2ccc3c(c2)N(C)C(=O)CO3)c(C)s1 |
| 1020 s | Cc1nc(-c2ccccc2Cl)sc1C(=O)NCCc1c[nH]c2ccccc12 |
| 721 s | CC(C)CNC(=O)c1ccc(CN2CCN(Cc3ccccc3)C(=O)C2=O)cc1 |
| 742 s | CCOC(=O)Cc1ccc(NC(=O)NC2CCN(c3ccccc3)C2=O)cc1 (stereo not given) |
| 833 s | CCN1C(=O)CCc2cc(NS(=O)(=O)c3cccc(Br)c3)ccc21 |
| 1090 s | O=C(NCCC1=CCCCC1)C1CCN(C(=O)c2cccn2-c2cccnc2)CC1 |
| 754 s | CCN(Cc1ccccc1)C(=O)c1c(C)sc2ccn(CC)c(=O)c12 |
| 574 s | CC(C)n1cnc2cc(CNC(=O)c3ccoc3)ccc21 |
| 899 s | O=C(NC1CC1)c1ccc(OCC2CCN(C(=O)c3ccc(C(F)(F)F)cc3)CC2)cc1 |
| 905 s | COc1ccc(Cn2nc3c(S(=O)(=O)N4CCN(c5ccc(F)cc5)CC4)cccn3c2=O)cc1 |
| 765 s | CCC1CCCCN1Cc1nc(Cn2ccn3nc(-c4ccc(C)c(C)c4)cc3c2=O)no1 (stereo not given) |
| 1070 s | CCc1ccc(-c2ccc(=O)n(CCc3nc(-c4ccc5c(c4)OCO5)no3)n2)cc1 |
| 1080 s | CC(C)C(=O)Nc1ccc(C2(C(=O)N(C)Cc3ccccc3)CCCCC2)cc1 |
| 760 s | CCOc1ccc(CNC(=O)C2CCCN2S(=O)(=O)c2cc3c(cc2Cl)NC(=O)CO3)cc1 (stereo not given) |
| 951 s | CCOc1ccc(-n2ccn3cc(-c4cc(C)ccc4C)nc3c2=O)cc1 |
| 822 s | COc1ccc(C)cc1NC(=O)N1CCc2cn(C)c3cccc(c23)C1 |
| 822 s | COc1cccc(CNC(=O)c2nnc(-c3ccc(S(=O)(=O)N4CCOCC4)cc3)o2)c1 |
| 640 s | CCSc1ccccc1C(=O)NCC1(CO)CC1 |
| 966 s | Cc1c(C(=O)N2CCCC(C)C2)sc2ncn(CC(=O)N3CC(C)CC(C)C3)c(=O)c12 (stereo not given) |
| 589 s | COc1ccc2c(c1)sc1ncc(C(=O)N3CCN(c4ccccn4)CC3)c(=O)n12 |

| Structure (SMILES) | RP-LC retention time |
| --- | --- |
| CC(=O)[C@H]1CCC2C3CC[C@H]4C[C@H](O)CC[C@]4(C)C3CC[C@@]21C (stereo not given in full) | 1270 s |
| COc1ccc2c(c1)C1(CCN(C(=O)c3ccc(F)cc3)C1)C(=O)N2C (stereo not given) | 759 s |
